Reference: patent US11078216B2, “Bisaryl amides as NRF2 activators” (GLAXOSMITHKLINE INTELLECTUAL PROPERTY DEVELOPMENT LIMITED, priority 2016, dated 2021)

Tested on: NRF2 (NQO1 activity as marker for NRF2 activation), BEAS-2B cells
Assay: BEAS-2B NQO1 MTT Assay
Assay type: cell-based
Details: Homo sapiens, EC50 of NQO1 specific activity induction, 48 hours incubation, read-out: EC50
Source text: NAD(P)H:quinone oxidoreductase 1 (NQO1), also called DT diaphorase, is a homodimeric FAD-containing enzyme that catalyzes obligatory NAD(P)H-dependent two-electron reductions of quinones and protects cells against the toxic and neoplastic effects of free radicals and reactive oxygen species arising from one-electron reductions. The transcription of NQO1 is finely regulated by NRF2, and thus NQO1 activity is a good marker for NRF2 activation. On day one, frozen BEAS-2B cells (ATCC) are thawed in a water bath, counted, and re-suspended at a concentration of 250,000 cells/mL. Fifty microliters of cells are plated in 384 well black clear-bottomed plates. Plates are incubated at 37° C., 5% CO2 overnight. On day two, plates are centrifuged and 50 nL of compound or controls are added to the cells. Plates are then incubated at 37° C., 5% CO2 for 48 hours. On day four, medium is aspirated from the plate and crude cell lysates are made by adding 13 uL of 1× Cell Signaling Technologies lysis buffer with 1 Complete, Mini, EDTA-free Protease Inhibitor Tablet (Roche) for each 10 mL of lysis buffer. After lysis plates are incubated for 20 minutes at room temperature. Two microliters of lysate are removed for use in Cell Titer Glo assay (Promega) and MTT cocktail is prepared (Prochaska et. al. 1998) for measurement of NQO1 activity. Fifty microliters of MTT cocktail is added to each well, plate is centrifuged, and analyzed on an Envision plate reader (Perkin Elmer) using Absorbance 570 nm label for 30 minutes. Product formation is measured kinetically and the EC50 of NQO1 specific activity induction is calculated by plotting the change in absorbance (Delta OD/min) versus the log of compound concentration followed by 3-parameter fitting.
EC50s<1 nM (+++++), EC50s 1 nM-10 nM (++++), EC50s 10 nM-100 nM (+++), EC50s 100 nM-1 uM (++), EC50s 1-10 uM (+), EC50s>10 uM (−), or were not determined (ND).

Row | Structure (SMILES) | EC50
1 | CC[C@@H]1CN(Cc2cc(C(CC(=O)Nc3cccnc3)c3ccc(C#N)cc3C)ccc2C)S(=O)(=O)c2cccnc2O1 (single isomer, unassigned) [Example 69] | 100 to 1000 nM
2 | CC[C@@H]1CN(Cc2cc([C@H](CC(=O)Nc3cccnc3)c3ccc4c(nnn4CC)c3C)ccc2C)S(=O)(=O)c2cccnc2O1 [Example 1, (S)-3-(3-(((R)-4-Ethyl-1,1-dioxido-3,4-dihydro-2H-pyrido[2,3-b][1,4,5]oxathiazepin-2-yl)methyl)-4-methylphenyl)-3-(1-ethyl-4-methyl-1H-benzo[d][1,2,3]triazol-5-yl)-N-(pyridin-3-yl)propanamide] | 10 to 100 nM
3 | CC[C@@H]1CN(Cc2cc([C@H](CC(=O)Nc3cnsc3)c3ccc4c(nnn4CC)c3C)ccc2C)S(=O)(=O)c2cccnc2O1 [Example 2, (S)-3-(3-(((R)-4-Ethyl-1,1-dioxido-3,4-dihydro-2H-pyrido[2,3-b][1,4,5]oxathiazepin-2-yl)methyl)-4-methylphenyl)-3-(1-ethyl-4-methyl-1H-benzo[d][1,2,3]triazol-5-yl)-N-(isothiazol-4-yl)propanamide] | 10 to 100 nM
4 | CC[C@@H]1CN(Cc2cc([C@H](CC(=O)NCc3ncco3)c3ccc4c(nnn4CC)c3C)ccc2C)S(=O)(=O)c2cccnc2O1 [Example 3, (S)-3-(3-(((R)-4-Ethyl-1,1-dioxido-3,4-dihydro-2H-pyrido[2,3-b][1,4,5]oxathiazepin-2-yl)methyl)-4-methylphenyl)-3-(1-ethyl-4-methyl-1H-benzo[d][1,2,3]triazol-5-yl)-N-(oxazol-2-ylmethyl)propanamide] | 100 to 1000 nM
5 | CC[C@@H]1CN(Cc2cc([C@H](CC(=O)NC3COC3)c3ccc4c(nnn4CC)c3C)ccc2C)S(=O)(=O)c2cccnc2O1 [Example 4, (S)-3-(3-(((R)-4-Ethyl-1,1-dioxido-3,4-dihydro-2H-pyrido[2,3-b][1,4,5]oxathiazepin-2-yl)methyl)-4-methylphenyl)-3-(1-ethyl-4-methyl-1H-benzo[d][1,2,3]triazol-5-yl)-N-(oxetan-3-yl)propanamide] | 100 to 1000 nM
6 | CC[C@@H]1CN(Cc2cc([C@H](CC(=O)NC3CCS(=O)(=O)C3)c3ccc4c(nnn4CC)c3C)ccc2C)S(=O)(=O)c2cccnc2O1 (stereo partly drawn) [Example 5, (3S)-N-(1,1-Dioxidotetrahydrothiophen-3-yl)-3-(3-(((R)-4-ethyl-1,1-dioxido-3,4-dihydro-2H-pyrido[2,3-b][1,4,5]oxathiazepin-2-yl)methyl)-4-methylphenyl)-3-(1-ethyl-4-methyl-1H-benzo[d][1,2,3]triazol-5-yl)propanamide] | 100 to 1000 nM
7 | CC[C@@H]1CN(Cc2cc([C@H](CC(=O)n3ccc(N)n3)c3ccc4c(nnn4CC)c3C)ccc2C)S(=O)(=O)c2cccnc2O1 [Example 6, (S)-1-(3-Amino-1H-pyrazol-1-yl)-3-(3-(((R)-4-ethyl-1,1-dioxido-3,4-dihydro-2H-pyrido[2,3-b][1,4,5]oxathiazepin-2-yl)methyl)-4-methylphenyl)-3-(1-ethyl-4-methyl-1H-benzo[d][1,2,3]triazol-5-yl)propan-1-one] | 1 to 10 nM
8 | CC[C@@H]1CN(Cc2cc([C@H](CC(=O)n3nccc3N)c3ccc4c(nnn4CC)c3C)ccc2C)S(=O)(=O)c2cccnc2O1 [Example 7, (S)-1-(5-Amino-1H-pyrazol-1-yl)-3-(3-(((R)-4-ethyl-1,1-dioxido-3,4-dihydro-2H-pyrido[2,3-b][1,4,5]oxathiazepin-2-yl)methyl)-4-methylphenyl)-3-(1-ethyl-4-methyl-1H-benzo[d][1,2,3]triazol-5-yl)propan-1-one] | 1 to 10 nM
9 | CC[C@@H]1CN(Cc2cc([C@H](CC(=O)NCc3ncc[nH]3)c3ccc4c(nnn4CC)c3C)ccc2C)S(=O)(=O)c2cccnc2O1 [Example 8, (S)-N-((1H-Imidazol-2-yl)methyl)-3-(3-(((R)-4-ethyl-1,1-dioxido-3,4-dihydro-2H-pyrido[2,3-b][1,4,5]oxathiazepin-2-yl)methyl)-4-methylphenyl)-3-(1-ethyl-4-methyl-1H-benzo[d][1,2,3]triazol-5-yl)propanamide] | 100 to 1000 nM
10 | CC[C@@H]1CN(Cc2cc([C@H](CC(=O)Nc3ccnn3C)c3ccc4c(nnn4CC)c3C)ccc2C)S(=O)(=O)c2cccnc2O1 [Example 9, (S)-3-(3-(((R)-4-Ethyl-1,1-dioxido-3,4-dihydro-2H-pyrido[2,3-b][1,4,5]oxathiazepin-2-yl)methyl)-4-methylphenyl)-3-(1-ethyl-4-methyl-1H-benzo[d][1,2,3]triazol-5-yl)-N-(1-methyl-1H-pyrazol-5-yl)propanamide] | 100 to 1000 nM
11 | CC[C@@H]1CN(Cc2cc([C@H](CC(=O)Nc3cnccc3C)c3ccc4c(nnn4CC)c3C)ccc2C)S(=O)(=O)c2cccnc2O1 [Example 10, (S)-3-(3-(((R)-4-Ethyl-1,1-dioxido-3,4-dihydro-2H-pyrido[2,3-b][1,4,5]oxathiazepin-2-yl)methyl)-4-methylphenyl)-3-(1-ethyl-4-methyl-1H-benzo[d][1,2,3]triazol-5-yl)-N-(4-methylpyridin-3-yl)propanamide] | 100 to 1000 nM
12 | CC[C@@H]1CN(Cc2cc([C@H](CC(=O)Nc3cnccc3OC)c3ccc4c(nnn4CC)c3C)ccc2C)S(=O)(=O)c2cccnc2O1 [Example 11, (S)-3-(3-(((R)-4-Ethyl-1,1-dioxido-3,4-dihydro-2H-pyrido[2,3-b][1,4,5]oxathiazepin-2-yl)methyl)-4-methylphenyl)-3-(1-ethyl-4-methyl-1H-benzo[d][1,2,3]triazol-5-yl)-N-(4-methoxypyridin-3-yl)propanamide] | 10 to 100 nM
13 | CC[C@@H]1CN(Cc2cc([C@H](CC(=O)Nc3cncc(C(F)(F)F)c3)c3ccc4c(nnn4CC)c3C)ccc2C)S(=O)(=O)c2cccnc2O1 [Example 12, (S)-3-(3-(((R)-4-Ethyl-1,1-dioxido-3,4-dihydro-2H-pyrido[2,3-b][1,4,5]oxathiazepin-2-yl)methyl)-4-methylphenyl)-3-(1-ethyl-4-methyl-1H-benzo[d][1,2,3]triazol-5-yl)-N-(5-(trifluoromethyl)pyridin-3-yl)propanamide] | 10 to 100 nM
14 | CC[C@@H]1CN(Cc2cc([C@H](CC(=O)Nc3cncc(OC)c3)c3ccc4c(nnn4CC)c3C)ccc2C)S(=O)(=O)c2cccnc2O1 [Example 13, (S)-3-(3-(((R)-4-Ethyl-1,1-dioxido-3,4-dihydro-2H-pyrido[2,3-b][1,4,5]oxathiazepin-2-yl)methyl)-4-methylphenyl)-3-(1-ethyl-4-methyl-1H-benzo[d][1,2,3]triazol-5-yl)-N-(5-methoxypyridin-3-yl)propanamide] | 10 to 100 nM
15 | CC[C@@H]1CN(Cc2cc([C@H](CC(=O)Nc3ccc(C(F)(F)F)nc3)c3ccc4c(nnn4CC)c3C)ccc2C)S(=O)(=O)c2cccnc2O1 [Example 14, (S)-3-(3-(((R)-4-Ethyl-1,1-dioxido-3,4-dihydro-2H-pyrido[2,3-b][1,4,5]oxathiazepin-2-yl)methyl)-4-methylphenyl)-3-(1-ethyl-4-methyl-1H-benzo[d][1,2,3]triazol-5-yl)-N-(6-(trifluoromethyl)pyridin-3-yl)propanamide] | 100 to 1000 nM
16 | CC[C@@H]1CN(Cc2cc([C@H](CC(=O)Nc3ccc(C)nc3)c3ccc4c(nnn4CC)c3C)ccc2C)S(=O)(=O)c2cccnc2O1 [Example 15, (S)-3-(3-(((R)-4-Ethyl-1,1-dioxido-3,4-dihydro-2H-pyrido[2,3-b][1,4,5]oxathiazepin-2-yl)methyl)-4-methylphenyl)-3-(1-ethyl-4-methyl-1H-benzo[d][1,2,3]triazol-5-yl)-N-(6-methylpyridin-3-yl)propanamide] | 100 to 1000 nM
17 | CC[C@@H]1CN(Cc2cc([C@H](CC(=O)NCc3nccn3C)c3ccc4c(nnn4CC)c3C)ccc2C)S(=O)(=O)c2cccnc2O1 [Example 16, (S)-3-(3-(((R)-4-Ethyl-1,1-dioxido-3,4-dihydro-2H-pyrido[2,3-b][1,4,5]oxathiazepin-2-yl)methyl)-4-methylphenyl)-3-(1-ethyl-4-methyl-1H-benzo[d][1,2,3]triazol-5-yl)-N-((1-methyl-1H-imidazol-2-yl)methyl)propanamide] | 1000 to 10000 nM
18 | CC[C@@H]1CN(Cc2cc([C@H](CC(=O)Nc3nccn3C)c3ccc4c(nnn4CC)c3C)ccc2C)S(=O)(=O)c2cccnc2O1 [Example 17, (S)-3-(3-(((R)-4-Ethyl-1,1-dioxido-3,4-dihydro-2H-pyrido[2,3-b][1,4,5]oxathiazepin-2-yl)methyl)-4-methylphenyl)-3-(1-ethyl-4-methyl-1H-benzo[d][1,2,3]triazol-5-yl)-N-(1-methyl-1H-imidazol-2-yl)propanamide] | 100 to 1000 nM
19 | CC[C@@H]1CN(Cc2cc([C@H](CC(=O)Nc3cncc4ccccc34)c3ccc4c(nnn4CC)c3C)ccc2C)S(=O)(=O)c2cccnc2O1 [Example 18, (S)-3-(3-(((R)-4-Ethyl-1,1-dioxido-3,4-dihydro-2H-pyrido[2,3-d][1,4,5]oxathiazepin-2-yl)methyl)-4-methylphenyl)-3-(1-ethyl-4-methyl-1H-benzo[d][1,2,3]triazol-5-yl)-N-(isoquinolin-4-yl)propanamide] | 10 to 100 nM
